{"source": "ChEMBL document CHEMBL1150587", "about": "“Evaluation of the potential cancer chemotherapeutic efficacy of natural product isolates employing in vivo hollow fiber tests” (J Nat Prod, 2002)", "key": {"[1]": {"tested_on": "LNCaP", "experiment": "Cytotoxicity against human LNCAP cells after 72 hrs by SRB assay", "format": "functional, cell-based"}, "[2]": {"tested_on": "SK-MEL-2", "experiment": "Growth inhibition of human SK-MEL-2 cells implanted intraperitoneally to NCr nu/nu mouse at 7.13 to 28.5 umol/kg, ip administered from day 3 to 6 after implantation measured on day 7 by MTT-based hollow-fiber test", "format": "functional"}, "[3]": {"tested_on": "Lu1", "experiment": "Cytotoxicity against human Lu1 cells after 72 hrs by SRB assay", "format": "functional, cell-based", "settings": "Lu1, 72 h"}, "[4]": {"tested_on": "Lu1", "experiment": "Growth inhibition of ip dosed intraperitoneally implanted human Lu1 cells to NCr nu/nu mouse administered from day 3 to 6 after implantation measured on day 7 by MTT-based hollow-fiber test", "format": "functional, organism-based"}, "[5]": {"tested_on": "SK-MEL-2", "experiment": "Cytotoxicity against human SK-MEL-2 cells after 72 hrs by SRB assay", "format": "functional, cell-based", "settings": "SK-MEL-2, 72 h"}, "[6]": {"tested_on": "Col2", "experiment": "Cytotoxicity against human Col2 cells after 72 hrs by SRB assay", "format": "functional, cell-based", "settings": "Col2, 72 h"}, "[7]": {"tested_on": "SW626", "experiment": "Growth inhibition of human SW626 cells implanted subcutaneously to NCr nu/nu mouse at 7.13 to 28.5 umol/kg, ip administered from day 3 to 6 after implantation measured on day 7 by MTT-based hollow-fiber test", "format": "functional"}, "[8]": {"tested_on": "Lu1", "experiment": "Growth inhibition of human Lu1 cells implanted subcutaneously to NCr nu/nu mouse at 7.13 to 28.5 umol/kg, ip administered from day 3 to 6 after implantation measured on day 7 by MTT-based hollow-fiber test", "format": "functional"}, "[9]": {"tested_on": "SW626", "experiment": "Cytotoxicity against human SW626 cells after 72 hrs by SRB assay", "format": "functional, cell-based", "settings": "SW626, 72 h"}, "[10]": {"tested_on": "Mus musculus", "experiment": "Toxicity in tumor cell implanted NCr nu/nu mouse assessed as body weight change at 28.5 umol/kg, ip administered from day 3 to 6 after implantation measured on day 7", "format": "organism-based", "settings": "in vivo"}, "[11]": {"tested_on": "KB", "experiment": "Growth inhibition of human KB cells implanted subcutaneously to NCr nu/nu mouse at 7.13 to 28.5 umol/kg, ip administered from day 3 to 6 after implantation measured on day 7 by MTT-based hollow-fiber test", "format": "functional"}, "[12]": {"tested_on": "MCF7", "experiment": "Growth inhibition of human MCF7 cells implanted intraperitoneally to NCr nu/nu mouse at 7.13 to 28.5 umol/kg, ip administered from day 3 to 6 after implantation measured on day 7 by MTT-based hollow-fiber test", "format": "functional"}, "[13]": {"tested_on": "MCF7", "experiment": "Growth inhibition of human MCF7 cells implanted subcutaneously to NCr nu/nu mouse at 7.13 to 28.5 umol/kg, ip administered from day 3 to 6 after implantation measured on day 7 by MTT-based hollow-fiber test", "format": "functional"}, "[14]": {"tested_on": "Mus musculus", "experiment": "Toxicity in NCr nu/nu mouse subcutaneously implanted with human KB cells assessed as change in body weight at 28.5 umol/kg, ip administered on day 10, 13, 16, 20 of implantation", "format": "organism-based", "settings": "in vivo"}, "[15]": {"tested_on": "Mus musculus", "experiment": "Toxicity in tumor cell implanted NCr nu/nu mouse assessed as body weight change at 14.3 umol/kg, ip administered from day 3 to 6 after implantation measured on day 7", "format": "organism-based", "settings": "in vivo"}, "[16]": {"tested_on": "P388", "experiment": "Cytotoxicity against mouse P388 cells after 72 hrs by SRB assay", "format": "functional, cell-based", "settings": "P388, 72 h"}, "[17]": {"tested_on": "P388", "experiment": "Growth inhibition of mouse P388 cells implanted intraperitoneally to NCr nu/nu mouse at 7.13 to 28.5 umol/kg, ip administered from day 3 to 6 after implantation measured on day 7 by MTT-based hollow-fiber test", "format": "functional"}, "[18]": {"tested_on": "Mus musculus", "experiment": "Toxicity in tumor-implanted NCr nu/nu mouse at 57.5 umol/kg, ip administered from day 3 to 6 after implantation measured on day 7 by hollow-fiber test", "format": "organism-based", "settings": "in vivo"}, "[19]": {"tested_on": "MCF7", "experiment": "Cytotoxicity against human MCF7 cells after 72 hrs by SRB assay", "settings": "MCF7, 72 h"}, "[20]": {"tested_on": "SK-MEL-2", "experiment": "Growth inhibition of human SK-MEL-2 cells implanted subcutaneously to NCr nu/nu mouse at 7.13 to 28.5 umol/kg, ip administered from day 3 to 6 after implantation measured on day 7 by MTT-based hollow-fiber test", "format": "functional"}, "[21]": {"experiment": "Cytotoxicity against human KBV1 cells after 72 hrs by SRB assay", "format": "functional, cell-based", "settings": "KB-V1, 72 h"}, "[22]": {"tested_on": "Mus musculus", "experiment": "Toxicity in NCr nu/nu mouse subcutaneously implanted with human KB cells assessed as mortality at 14.3 umol/kg, ip administered on day 10, 13, 16, 20 of implantation", "format": "organism-based", "settings": "in vivo"}, "[23]": {"tested_on": "KB", "experiment": "Cytotoxicity against human KB cells after 72 hrs by SRB assay", "format": "functional, cell-based"}, "[24]": {"tested_on": "LNCaP", "experiment": "Growth inhibition of human LNCAP cells implanted subcutaneously to NCr nu/nu mouse at 7.13 to 28.5 umol/kg, ip administered from day 3 to 6 after implantation measured on day 7 by MTT-based hollow-fiber test", "format": "functional"}, "[25]": {"tested_on": "KB", "experiment": "Growth inhibition of human KB cells implanted intraperitoneally to NCr nu/nu mouse at 7.13 to 28.5 umol/kg, ip administered from day 3 to 6 after implantation measured on day 7 by MTT-based hollow-fiber test", "format": "functional"}, "[26]": {"tested_on": "KB", "experiment": "Growth inhibition of human KB cells implanted subcutaneously to NCr nu/nu mouse assessed as tumor size at 7.13 to 72.6 umol/kg, ip administered on day 10, 13, 16, 20 of implantation", "format": "functional, organism-based"}, "[27]": {"tested_on": "P388", "experiment": "Growth inhibition of mouse P388 cells implanted subcutaneously to NCr nu/nu mouse at 7.13 to 28.5 umol/kg, ip administered from day 3 to 6 after implantation measured on day 7 by MTT-based hollow-fiber test", "format": "functional"}, "[28]": {"tested_on": "Mus musculus", "experiment": "Toxicity in NCr nu/nu mouse subcutaneously implanted with human KB cells assessed as mortality at 28.5 umol/kg, ip administered on day 10, 13, 16, 20 of implantation", "format": "organism-based", "settings": "in vivo"}, "[29]": {"tested_on": "LNCaP", "experiment": "Growth inhibition of human LNCAP cells implanted intraperitoneally to NCr nu/nu mouse at 7.13 to 28.5 umol/kg, ip administered from day 3 to 6 after implantation measured on day 7 by MTT-based hollow-fiber test", "format": "functional"}, "[30]": {"experiment": "Cytotoxicity against human BC1 cells after 72 hrs by SRB assay", "settings": "BC1, 72 h"}, "[31]": {"tested_on": "LNCaP", "experiment": "Growth inhibition of ip dosed intraperitoneally implanted human LNCAP cells to NCr nu/nu mouse administered from day 3 to 6 after implantation measured on day 7 by MTT-based hollow-fiber test", "format": "functional, organism-based"}, "[32]": {"tested_on": "SW626", "experiment": "Growth inhibition of human SW626 cells implanted intraperitoneally to NCr nu/nu mouse at 7.13 to 28.5 umol/kg, ip administered from day 3 to 6 after implantation measured on day 7 by MTT-based hollow-fiber test", "format": "functional"}, "[33]": {"tested_on": "Mus musculus", "experiment": "Toxicity in tumor cell implanted NCr nu/nu mouse assessed as body weight change at 7.13 umol/kg, ip administered from day 3 to 6 after implantation measured on day 7", "format": "organism-based", "settings": "in vivo"}, "[34]": {"tested_on": "Mus musculus", "experiment": "Toxicity in NCr nu/nu mouse subcutaneously implanted with human KB cells assessed as mortality at 7.13 umol/kg, ip administered on day 10, 13, 16, 20 of implantation", "format": "organism-based", "settings": "in vivo"}, "[35]": {"tested_on": "Mus musculus", "experiment": "Toxicity in NCr nu/nu mouse subcutaneously implanted with human KB cells assessed as change in body weight at 7.13 umol/kg, ip administered on day 10, 13, 16, 20 of implantation", "format": "organism-based", "settings": "in vivo"}, "[36]": {"tested_on": "Lu1", "experiment": "Growth inhibition of human Lu1 cells implanted intraperitoneally to NCr nu/nu mouse at 7.13 to 28.5 umol/kg, ip administered from day 3 to 6 after implantation measured on day 7 by MTT-based hollow-fiber test", "format": "functional"}, "[37]": {"tested_on": "Mus musculus", "experiment": "Toxicity in tumor-implanted NCr nu/nu mouse at 144 umol/kg, ip administered from day 3 to 6 after implantation measured on day 7 by hollow-fiber test", "format": "organism-based", "settings": "in vivo"}, "[38]": {"tested_on": "Mus musculus", "experiment": "Toxicity in NCr nu/nu mouse subcutaneously implanted with human KB cells assessed as change in body weight at 14.3 umol/kg, ip administered on day 10, 13, 16, 20 of implantation", "format": "organism-based", "settings": "in vivo"}}, "note": "The source made the active and inactive calls. No cut-off for these calls is given here."}
{"smiles": "C[C@@H]1CC[C@@]2(OC1)O[C@H]1C[C@H]3[C@@H]4CC=C5C[C@@H](O[C@@H]6O[C@H](CO)[C@@H](O[C@@H]7O[C@@H](C)[C@H](O)[C@@H](O)[C@H]7O)[C@H](O)[C@H]6O[C@@H]6O[C@@H](C)[C@H](O)[C@@H](O)[C@H]6O)CC[C@]5(C)[C@H]4CC[C@]3(C)[C@H]1[C@@H]2C", "note": "[DIOSCIN]", "values": [{"measurement": "IC50", "setting": "[1]", "value": 1.7, "unit": "µM"}, {"measurement": "inhibition (INH)", "setting": "[2]", "value": 2.3, "unit": "%"}, {"measurement": "IC50", "setting": "[3]", "value": 1.2, "unit": "µM"}, {"measurement": "Activity", "setting": "[4]", "value": "Dose-dependent effect"}, {"measurement": "IC50", "setting": "[5]", "value": 1.8, "unit": "µM"}, {"measurement": "IC50", "setting": "[6]", "value": 2.8, "unit": "µM"}, {"measurement": "inhibition (INH)", "setting": "[7]", "value": 8.7, "unit": "%"}, {"measurement": "inhibition (INH)", "setting": "[8]", "value": 0, "unit": "%"}, {"measurement": "IC50", "setting": "[9]", "value": 3.1, "unit": "µM"}, {"measurement": "Activity", "setting": "[10]", "value": -0.65, "unit": "g"}, {"measurement": "inhibition (INH)", "setting": "[11]", "value": 3.6, "unit": "%"}, {"measurement": "inhibition (INH)", "setting": "[12]", "value": 0, "unit": "%"}, {"measurement": "inhibition (INH)", "setting": "[13]", "value": 7.3, "unit": "%"}, {"measurement": "Activity", "setting": "[14]", "value": 8.6, "unit": "%"}, {"measurement": "Activity", "setting": "[15]", "value": 0.45, "unit": "g"}, {"measurement": "IC50", "setting": "[16]", "value": 21.9, "unit": "µM"}, {"measurement": "inhibition (INH)", "setting": "[17]", "value": 0, "unit": "%"}, {"measurement": "Activity", "setting": "[18]", "value": "Toxic"}, {"measurement": "IC50", "setting": "[19]", "value": 22.4, "unit": "µM"}, {"measurement": "inhibition (INH)", "setting": "[20]", "value": 0, "unit": "%"}, {"measurement": "IC50", "setting": "[21]", "value": "> 23", "unit": "µM"}, {"measurement": "Activity", "setting": "[22]", "value": "Non-toxic"}, {"measurement": "IC50", "setting": "[23]", "value": 20.7, "unit": "µM"}, {"measurement": "inhibition (INH)", "setting": "[24]", "value": 35.9, "unit": "%"}, {"measurement": "inhibition (INH)", "setting": "[25]", "value": 79, "unit": "%"}, {"measurement": "Activity", "setting": "[26]", "value": "inactive"}, {"measurement": "inhibition (INH)", "setting": "[27]", "value": 0, "unit": "%"}, {"measurement": "Activity", "setting": "[28]", "value": "Non-toxic"}, {"measurement": "inhibition (INH)", "setting": "[29]", "value": 36.9, "unit": "%"}, {"measurement": "IC50", "setting": "[30]", "value": 3.8, "unit": "µM"}, {"measurement": "Activity", "setting": "[31]", "value": "Dose-dependent effect"}, {"measurement": "inhibition (INH)", "setting": "[32]", "value": 4.1, "unit": "%"}, {"measurement": "Activity", "setting": "[33]", "value": 0.8, "unit": "g"}, {"measurement": "Activity", "setting": "[34]", "value": "Non-toxic"}, {"measurement": "Activity", "setting": "[35]", "value": 7.1, "unit": "%"}, {"measurement": "inhibition (INH)", "setting": "[36]", "value": 24.6, "unit": "%"}, {"measurement": "Activity", "setting": "[37]", "value": "Toxic"}, {"measurement": "Activity", "setting": "[38]", "value": 8.4, "unit": "%"}]}
